According to PMC9351465, “Mechanism-based heparanase inhibitors reduce cancer metastasis in vivo” (Proceedings of the National Academy of Sciences of the …, 2022):

Legend:
U87 glioblastoma cells = assay: Matrigel invasion assay; type: cell-based, human; settings: 20 µM inhibitor, 4 h
Experimental: Preliminary in cellulo evaluations of our inhibitors’ effects on cancer aggression were conducted using a Matrigel invasion assay, which measures the ability of cells to migrate through transwell inserts coated with the ECM material Matrigel. Matrigel invasion by cells requires a broad complement of proteases and glycosidases, thereby mimicking some aspects of metastasis in vivo ([51]).
(§1) For HS-degradation assays, ECM coated dishes were incubated with 200 ng recombinant HPSE in 1 mL reaction mixture (10 mM buffer Phosphate-Citrate pH 6.0, 50 mM NaCl, 1 mM DTT, 1 mM CaCl2) containing HPSE inhibitors or DMSO control. Plates were incubated at 37°C for 5 h, then assay medium collected and applied to a 0.9×30 cm Sepharose 6B size exclusion column. The Sepharose 6B column was eluted with PBS, and 35S radioactivity of 0.2 mL fractions quantitated using a liquid scintillation analyzer (Packard BioScience) (11). […]
(§2) Cells in the upper chamber were separated by Matrigel from a lower chamber containing 600 µL DMEM, supplemented with 10% FBS. […] 10 randomly selected microscopic fields were recorded, and cell invasion calculated using ImageJ, by quantitating the percentage of the field stained by crystal violet. […]

HPSE = target: T1, HPSE (Homo sapiens, UniProt Q9Y251); assay: H35SPG basement membrane (ECM) digest by recombinant HPSE; type: biochemical
T1 sequence (Q9Y251 158-543 limits assumed): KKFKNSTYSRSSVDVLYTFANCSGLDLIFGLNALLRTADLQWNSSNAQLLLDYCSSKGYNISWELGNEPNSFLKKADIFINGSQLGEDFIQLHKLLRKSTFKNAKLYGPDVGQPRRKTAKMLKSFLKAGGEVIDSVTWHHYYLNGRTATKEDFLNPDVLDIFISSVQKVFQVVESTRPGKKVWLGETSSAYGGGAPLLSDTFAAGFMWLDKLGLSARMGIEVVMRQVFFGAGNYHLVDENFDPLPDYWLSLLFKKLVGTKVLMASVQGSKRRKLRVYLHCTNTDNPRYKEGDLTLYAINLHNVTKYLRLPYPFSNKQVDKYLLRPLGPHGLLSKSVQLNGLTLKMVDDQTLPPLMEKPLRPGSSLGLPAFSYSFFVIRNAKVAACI
T1 sequence (Q9Y251 36-109 limits assumed): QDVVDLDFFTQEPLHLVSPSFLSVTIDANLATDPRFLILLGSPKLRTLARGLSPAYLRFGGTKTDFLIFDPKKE
Description: Finally, we assessed our inhibitors against HPSE-mediated degradation of bona fide HSPGs in an ECM environment. Cultured bovine corneal endothelial cells secrete a subendothelial basement membrane material rich in proteoglycans, which can be radiolabeled by growth in the presence of ^35SO4^2− ([50]). Solubilized H^35S chains released from H^35SPGs by HPSE digestion can be resolved chromatographically, with HPSE inhibition leading to a corresponding loss of signal. […] We also tested inhibition of endogenous cellular HPSE using this assay format. […]
ECM coated 35 mm culture dishes containing 35S labelled HS were prepared as previously described (10). Briefly, bovine corneal endothelial cells were plated at an initial density of 2x10^5 cells/ml, with 4% dextran T-40 (Sigma) included in the growth medium. Na235SO4 (25 µCi/ml) was added to the incubation medium on days 2 and 5 after seeding. On day 12, subendothelial ECM is exposed by dissolving the cells with PBS containing 0.5% Triton X-100 and 20 mM NH4OH, followed by four washes with PBS.
as §1
Matrigel and […]
non-migrating cells in the upper side of the Boyden filter were removed by swabbing, then invading cells on the bottom side of the transwell filter imaged for analysis. […]
B16 melanoma - Twenty minutes before tumor cell inoculation, C57BL/J6 mice (n=5) were injected intraperitoneally with vehicle alone (PBS), compound 2 (300 nmol/mouse), or SST0001 (150 µg/mouse). Mice were subsequently intravenously inoculated with 1.5x105

[1] = target: T2, endogenous cellular HPSE (U87 glioma cells) (Homo sapiens, UniProt Q9Y251); assay: H35SPG digest by U87 glioma cell lysates, inhibitor before or after lysis; type: cell-based; settings: inhibitor applied before or after lysis, 18 h digest
T2 construct: endogenous in cells; host or cells: U87 glioma cells
T2 sequence (Q9Y251 158-543 limits assumed): T1 sequence (Q9Y251 158-543 limits assumed)
T2 sequence (Q9Y251 36-109 limits assumed): T1 sequence (Q9Y251 36-109 limits assumed)
Description: Finally, we assessed our inhibitors against HPSE-mediated degradation of bona fide HSPGs in an ECM environment. Cultured bovine corneal endothelial cells secrete a subendothelial basement membrane material rich in proteoglycans, which can be radiolabeled by growth in the presence of ^35SO4^2− ([50]). Solubilized H^35S chains released from H^35SPGs by HPSE digestion can be resolved chromatographically, with HPSE inhibition leading to a corresponding loss of signal. […] We also tested inhibition of endogenous cellular HPSE using this assay format.
Figure S7 Radiolabelled H35SPG basement membrane digests by HPSE expressing U87 cell […]
(1 picture or pasted object on this page, not shown here)
as §1, with “Plates were incubated at 37°C for 5 h, then assay medium collected and applied to a 0.9×30 cm Sepharose 6B size exclusion column.” left out
as §2

CC(=O)N[C@H]1[C@@H](O[C@H]2[C@H](O)[C@@H](O)[C@@H]3O[C@@H]3[C@@H]2C(=O)O)O[C@H](CO)[C@@H](O)[C@@H]1O [compound 2]
Matrigel invasion (% field stained) (U87 glioblastoma cells): significantly reduced Matrigel invasion | inhibition of recombinant HPSE-mediated H35SPG cleavage (HPSE; 200 ng HPSE, pH 6.0, 37°C, 5 h): robust, dose-dependent inhibition | level of inhibition of H35SPG cleavage relative to 4.6 μM 10 (HPSE; 1 μM 2 or 3 compared to 4.6 μM 10): comparable levels of inhibition | inhibition of intracellular HPSE pool (cell penetration) [1]: can also penetrate cells to inhibit the intracellular HPSE pool
